ChEMBL document CHEMBL5260810, “Inhibition of bromodomain-containing protein 9 for the prevention of epigenetically-defined drug resistance” (Bioorg Med Chem Lett, 2017)

Experiments:
HT = assay: Cytotoxicity against human HT cells measured after 8 days; assay type: functional, cell-based; details: 192 h
[1] = target: Tyrosine-protein kinase JAK1 (Homo sapiens) (UniProt P23458); assay: Inhibition of JAK1 (unknown origin) at 1 uM relative to control
K562 = assay: Cytotoxicity against human K562 cells measured after 8 days; assay type: functional, cell-based; details: K562, 192 h
CX-1 = assay: Cytotoxicity against human CX-1 cells measured after 8 days; assay type: functional, cell-based; details: CX-1, 192 h
SK-MEL-28 = assay: Cytotoxicity against human SK-MEL-28 cells measured after 8 days; assay type: functional, cell-based; details: SK-MEL-28, 192 h
T47D = assay: Cytotoxicity against human T47D cells measured after 8 days; assay type: functional, cell-based; details: 192 h
[2] = target: Sodium-dependent dopamine transporter (Homo sapiens) (UniProt Q01959); assay: Displacement of […] from recombinant human Dopamine transporter at 10 uM after 120 mins by scintillation counting analysis relative to control
HCC1954 = assay: Cytotoxicity against human HCC1954 cells measured after 8 days; assay type: functional, cell-based; details: HCC1954, 192 h
NCI-H82 = assay: Cytotoxicity against human NCI-H82 cells measured after 8 days; assay type: functional, cell-based; details: NCI-H82, 192 h
[3] = Cytotoxicity against human NCI-H2110 cells measured after 8 days; assay type: functional, cell-based; details: NCI-H2110, 192 h
Hs 294T = assay: Cytotoxicity against human Hs294T cells measured after 8 days; assay type: functional, cell-based; details: 192 h
EVSA-T = assay: Cytotoxicity against human EVSA-T cells measured after 8 days; assay type: functional, cell-based; details: 192 h
U-937 = assay: Cytotoxicity against human U-937 cells measured after 8 days; assay type: functional, cell-based; details: U-937, 192 h
[4] = target: Beta-1 adrenergic receptor (Homo sapiens) (UniProt P08588); assay: Displacement of [3H](-)CGP 12177 from human beta1 adrenoceptor at 10 uM after 60 mins by scintillation counting analysis relative to control
OCI-AML-5 = assay: Cytotoxicity against human OCI-AML5 cells measured after 8 days; assay type: functional, cell-based; details: OCI-AML-5, 192 h
PC-3 = assay: Cytotoxicity against human PC-3 cells measured after 8 days; assay type: functional, cell-based; details: PC-3, 192 h
[5] = target: T1, Muscle, skeletal receptor tyrosine-protein kinase (Homo sapiens) (UniProt O15146); assay: Inhibition of MuSK (unknown origin) at 1 uM relative to control
T1 sequence (whole entry): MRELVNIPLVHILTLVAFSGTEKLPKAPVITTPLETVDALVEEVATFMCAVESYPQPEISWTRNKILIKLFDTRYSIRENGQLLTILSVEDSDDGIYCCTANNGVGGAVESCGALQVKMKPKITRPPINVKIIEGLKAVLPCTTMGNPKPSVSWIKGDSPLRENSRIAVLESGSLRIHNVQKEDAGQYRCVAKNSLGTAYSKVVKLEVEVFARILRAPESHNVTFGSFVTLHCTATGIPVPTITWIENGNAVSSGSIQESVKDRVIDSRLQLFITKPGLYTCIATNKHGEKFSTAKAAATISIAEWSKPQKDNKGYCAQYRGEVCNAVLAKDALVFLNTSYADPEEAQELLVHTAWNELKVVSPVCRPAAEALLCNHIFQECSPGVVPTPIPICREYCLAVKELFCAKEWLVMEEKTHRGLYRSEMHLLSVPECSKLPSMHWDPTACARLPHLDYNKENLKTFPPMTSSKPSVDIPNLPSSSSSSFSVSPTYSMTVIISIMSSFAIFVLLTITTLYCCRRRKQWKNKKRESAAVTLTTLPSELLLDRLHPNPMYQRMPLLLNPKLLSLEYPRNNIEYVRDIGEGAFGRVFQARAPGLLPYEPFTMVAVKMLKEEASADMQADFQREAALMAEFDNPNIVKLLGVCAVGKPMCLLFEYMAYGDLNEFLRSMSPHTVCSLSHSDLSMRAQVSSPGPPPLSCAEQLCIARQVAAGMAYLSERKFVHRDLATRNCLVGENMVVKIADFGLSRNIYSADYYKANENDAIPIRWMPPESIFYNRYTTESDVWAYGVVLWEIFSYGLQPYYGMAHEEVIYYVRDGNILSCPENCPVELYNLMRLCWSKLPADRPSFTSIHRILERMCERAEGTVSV

[6] = target: T2, Muscarinic acetylcholine receptor M2 (Homo sapiens) (UniProt P08172); assay: Displacement of [3H]AF-DX 384 from human recombinant M2 receptor at 10 uM after 60 mins by scintillation counting analysis relative to control
T2 sequence (whole entry): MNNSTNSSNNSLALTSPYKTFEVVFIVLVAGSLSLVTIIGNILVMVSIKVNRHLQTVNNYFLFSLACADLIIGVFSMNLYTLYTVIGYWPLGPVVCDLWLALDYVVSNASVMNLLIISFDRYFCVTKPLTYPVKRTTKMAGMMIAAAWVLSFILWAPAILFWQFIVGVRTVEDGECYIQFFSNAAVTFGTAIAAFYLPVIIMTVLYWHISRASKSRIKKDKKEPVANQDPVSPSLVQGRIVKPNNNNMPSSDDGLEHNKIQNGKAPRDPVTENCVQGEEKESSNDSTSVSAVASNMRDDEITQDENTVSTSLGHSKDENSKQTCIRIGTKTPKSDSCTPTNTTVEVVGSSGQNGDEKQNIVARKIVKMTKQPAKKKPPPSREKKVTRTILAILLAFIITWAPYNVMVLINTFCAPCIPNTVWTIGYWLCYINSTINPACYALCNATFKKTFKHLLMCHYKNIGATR

LXF-289 cell line = assay: Cytotoxicity against human LXF-289 cell line measured after 8 days; assay type: functional, cell-based; details: LXF-289, 192 h
[7] = target: Dual specificity mitogen-activated protein kinase kinase 1 (Homo sapiens) (UniProt Q02750); assay: Inhibition of MEK1 (unknown origin) at 1 uM relative to control
[8] = Cytotoxicity against human HCC2302 cells measured after 8 days; assay type: functional, cell-based; details: HCC2302, 192 h
Hs-578T = assay: Cytotoxicity against human Hs-578T cells measured after 8 days; assay type: functional, cell-based; details: 192 h
[9] = target: Aurora kinase B (Homo sapiens) (UniProt Q96GD4); assay: Inhibition of Aurora B (unknown origin) at 1 uM relative to control
[10] = Cytotoxicity against human NCI-H2373 cells measured after 8 days; assay type: functional, cell-based; details: NCI-H2373, 192 h
NCI-H650 = assay: Cytotoxicity against human NCI-H650 cells measured after 8 days; assay type: functional, cell-based; details: NCI-H650, 192 h
[11] = Cytotoxicity against human HNT-34 cells measured after 8 days; assay type: functional, cell-based; details: HNT-34, 192 h
NCI-H1437 = assay: Cytotoxicity against human NCI-H1437 cells measured after 8 days; assay type: functional, cell-based; details: NCI-H1437, 192 h
COLO 320DM = assay: Cytotoxicity against human COLO 320DM cells measured after 8 days; assay type: functional, cell-based; details: 192 h
[12] = target: Chromatin remodeling regulator CECR2 (Homo sapiens, UniProt Q9BXF3); assay: Binding affinity to human partial length CECR2 (P423 to D543 residues) expressed in bacterial expression system by BROMOscan assay
Chain of Chromatin remodeling regulator CECR2 (Q9BXF3 whole entry, the tested form may be a part): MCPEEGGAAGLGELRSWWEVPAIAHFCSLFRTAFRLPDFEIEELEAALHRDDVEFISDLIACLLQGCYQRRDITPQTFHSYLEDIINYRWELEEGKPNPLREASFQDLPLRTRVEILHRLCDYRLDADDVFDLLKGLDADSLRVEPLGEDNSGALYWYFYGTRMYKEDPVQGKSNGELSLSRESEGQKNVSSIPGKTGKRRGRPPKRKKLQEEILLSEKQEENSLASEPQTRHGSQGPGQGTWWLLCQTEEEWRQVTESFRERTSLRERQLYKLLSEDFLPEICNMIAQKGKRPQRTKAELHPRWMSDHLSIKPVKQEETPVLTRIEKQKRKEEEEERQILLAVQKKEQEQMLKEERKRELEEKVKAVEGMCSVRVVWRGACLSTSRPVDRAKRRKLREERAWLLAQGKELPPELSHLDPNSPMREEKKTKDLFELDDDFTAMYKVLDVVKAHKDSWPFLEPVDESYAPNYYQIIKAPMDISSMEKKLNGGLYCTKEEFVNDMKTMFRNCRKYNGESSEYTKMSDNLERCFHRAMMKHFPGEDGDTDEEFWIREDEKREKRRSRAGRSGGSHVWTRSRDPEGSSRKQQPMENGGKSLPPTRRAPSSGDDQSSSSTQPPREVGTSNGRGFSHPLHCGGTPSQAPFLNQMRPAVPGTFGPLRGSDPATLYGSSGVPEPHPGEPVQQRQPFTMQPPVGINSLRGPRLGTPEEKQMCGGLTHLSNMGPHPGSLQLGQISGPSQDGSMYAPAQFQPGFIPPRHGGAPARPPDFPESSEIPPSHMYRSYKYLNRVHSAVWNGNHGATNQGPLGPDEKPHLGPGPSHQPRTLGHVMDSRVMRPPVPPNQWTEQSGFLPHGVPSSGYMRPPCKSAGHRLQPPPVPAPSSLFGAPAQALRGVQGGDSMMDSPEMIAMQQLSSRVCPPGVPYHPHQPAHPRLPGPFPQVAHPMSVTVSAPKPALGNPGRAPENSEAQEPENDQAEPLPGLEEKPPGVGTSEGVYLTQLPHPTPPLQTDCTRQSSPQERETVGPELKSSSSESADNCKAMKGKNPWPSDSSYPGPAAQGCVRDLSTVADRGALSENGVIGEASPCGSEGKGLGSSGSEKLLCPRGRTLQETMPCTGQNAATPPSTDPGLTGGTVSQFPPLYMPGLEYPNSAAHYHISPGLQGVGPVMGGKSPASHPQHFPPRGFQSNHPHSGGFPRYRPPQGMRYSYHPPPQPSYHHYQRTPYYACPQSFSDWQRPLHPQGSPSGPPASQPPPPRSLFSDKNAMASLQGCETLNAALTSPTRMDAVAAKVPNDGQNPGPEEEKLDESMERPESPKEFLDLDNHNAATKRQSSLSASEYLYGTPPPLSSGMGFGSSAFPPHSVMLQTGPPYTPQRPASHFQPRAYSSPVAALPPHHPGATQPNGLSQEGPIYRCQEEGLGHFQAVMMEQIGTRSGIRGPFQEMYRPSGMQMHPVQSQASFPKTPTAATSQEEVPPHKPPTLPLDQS

Chain of Aurora kinase B (Homo sapiens) (Q96GD4 whole entry): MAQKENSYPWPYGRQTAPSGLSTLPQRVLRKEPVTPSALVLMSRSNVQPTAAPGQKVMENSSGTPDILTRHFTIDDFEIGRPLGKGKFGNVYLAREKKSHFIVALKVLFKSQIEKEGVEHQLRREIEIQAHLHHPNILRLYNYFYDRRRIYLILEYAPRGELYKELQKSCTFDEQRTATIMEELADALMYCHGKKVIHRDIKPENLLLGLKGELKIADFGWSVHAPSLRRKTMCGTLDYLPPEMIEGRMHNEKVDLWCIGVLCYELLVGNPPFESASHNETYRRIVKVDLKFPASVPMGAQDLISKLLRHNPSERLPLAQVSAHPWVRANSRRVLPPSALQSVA
Chain of Beta-1 adrenergic receptor (Homo sapiens) (P08588 whole entry, looked up): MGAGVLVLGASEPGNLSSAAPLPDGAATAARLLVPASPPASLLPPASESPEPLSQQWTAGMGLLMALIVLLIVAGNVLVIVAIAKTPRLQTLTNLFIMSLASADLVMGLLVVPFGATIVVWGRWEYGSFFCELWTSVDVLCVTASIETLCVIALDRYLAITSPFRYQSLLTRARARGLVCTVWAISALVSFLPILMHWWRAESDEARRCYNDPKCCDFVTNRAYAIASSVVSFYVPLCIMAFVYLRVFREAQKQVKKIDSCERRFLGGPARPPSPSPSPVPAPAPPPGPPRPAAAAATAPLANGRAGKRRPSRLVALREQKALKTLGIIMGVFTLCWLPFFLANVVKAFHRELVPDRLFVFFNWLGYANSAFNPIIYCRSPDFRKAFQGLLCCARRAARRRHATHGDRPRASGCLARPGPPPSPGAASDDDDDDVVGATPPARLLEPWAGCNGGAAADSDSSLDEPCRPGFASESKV
Chain of Sodium-dependent dopamine transporter (Homo sapiens) (Q01959 whole entry): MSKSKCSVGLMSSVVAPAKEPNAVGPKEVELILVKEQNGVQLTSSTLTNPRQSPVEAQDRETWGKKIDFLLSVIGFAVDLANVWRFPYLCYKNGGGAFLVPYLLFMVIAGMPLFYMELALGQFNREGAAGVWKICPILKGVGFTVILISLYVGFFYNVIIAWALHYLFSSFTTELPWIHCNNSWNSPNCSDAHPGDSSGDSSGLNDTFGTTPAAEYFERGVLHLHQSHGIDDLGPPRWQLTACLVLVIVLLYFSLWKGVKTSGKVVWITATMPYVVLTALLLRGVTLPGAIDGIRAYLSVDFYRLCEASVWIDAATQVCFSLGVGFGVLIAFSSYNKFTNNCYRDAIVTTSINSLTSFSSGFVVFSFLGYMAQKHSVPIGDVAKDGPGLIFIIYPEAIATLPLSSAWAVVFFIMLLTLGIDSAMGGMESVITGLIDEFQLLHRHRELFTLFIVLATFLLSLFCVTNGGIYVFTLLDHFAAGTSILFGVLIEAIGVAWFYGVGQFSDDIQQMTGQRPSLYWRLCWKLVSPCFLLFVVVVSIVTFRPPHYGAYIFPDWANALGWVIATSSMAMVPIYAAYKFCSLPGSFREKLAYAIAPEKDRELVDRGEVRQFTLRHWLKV
Chain of Tyrosine-protein kinase JAK1 (Homo sapiens) (P23458 whole entry): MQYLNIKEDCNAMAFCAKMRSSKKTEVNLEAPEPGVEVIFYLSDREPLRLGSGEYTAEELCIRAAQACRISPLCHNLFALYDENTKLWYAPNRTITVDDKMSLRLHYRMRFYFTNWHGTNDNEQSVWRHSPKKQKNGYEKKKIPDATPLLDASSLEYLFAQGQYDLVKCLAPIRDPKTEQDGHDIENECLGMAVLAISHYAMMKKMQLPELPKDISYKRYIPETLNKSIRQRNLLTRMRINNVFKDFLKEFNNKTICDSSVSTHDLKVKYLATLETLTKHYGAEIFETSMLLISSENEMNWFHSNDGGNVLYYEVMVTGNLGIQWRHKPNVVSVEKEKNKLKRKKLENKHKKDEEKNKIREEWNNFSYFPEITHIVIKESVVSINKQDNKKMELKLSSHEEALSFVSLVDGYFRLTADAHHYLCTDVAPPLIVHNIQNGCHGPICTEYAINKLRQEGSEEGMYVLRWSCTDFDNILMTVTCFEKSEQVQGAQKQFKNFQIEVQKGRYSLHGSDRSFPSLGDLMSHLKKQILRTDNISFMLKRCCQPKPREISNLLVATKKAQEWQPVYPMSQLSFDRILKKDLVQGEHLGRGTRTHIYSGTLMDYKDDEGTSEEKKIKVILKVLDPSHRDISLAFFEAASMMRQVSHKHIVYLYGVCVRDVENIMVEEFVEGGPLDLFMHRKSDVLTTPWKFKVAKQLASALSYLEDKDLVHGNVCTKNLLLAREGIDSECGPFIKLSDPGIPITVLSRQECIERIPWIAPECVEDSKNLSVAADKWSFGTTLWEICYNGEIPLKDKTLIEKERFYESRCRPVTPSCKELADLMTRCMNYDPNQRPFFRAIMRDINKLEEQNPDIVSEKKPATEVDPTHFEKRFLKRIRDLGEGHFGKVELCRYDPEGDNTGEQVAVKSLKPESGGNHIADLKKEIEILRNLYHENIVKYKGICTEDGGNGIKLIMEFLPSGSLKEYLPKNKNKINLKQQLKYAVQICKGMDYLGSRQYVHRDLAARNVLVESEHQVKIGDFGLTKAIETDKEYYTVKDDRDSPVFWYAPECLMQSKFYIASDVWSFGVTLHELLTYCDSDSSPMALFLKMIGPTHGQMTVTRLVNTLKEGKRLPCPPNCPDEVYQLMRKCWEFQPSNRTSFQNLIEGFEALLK
Chain of Dual specificity mitogen-activated protein kinase kinase 1 (Homo sapiens) (Q02750 whole entry): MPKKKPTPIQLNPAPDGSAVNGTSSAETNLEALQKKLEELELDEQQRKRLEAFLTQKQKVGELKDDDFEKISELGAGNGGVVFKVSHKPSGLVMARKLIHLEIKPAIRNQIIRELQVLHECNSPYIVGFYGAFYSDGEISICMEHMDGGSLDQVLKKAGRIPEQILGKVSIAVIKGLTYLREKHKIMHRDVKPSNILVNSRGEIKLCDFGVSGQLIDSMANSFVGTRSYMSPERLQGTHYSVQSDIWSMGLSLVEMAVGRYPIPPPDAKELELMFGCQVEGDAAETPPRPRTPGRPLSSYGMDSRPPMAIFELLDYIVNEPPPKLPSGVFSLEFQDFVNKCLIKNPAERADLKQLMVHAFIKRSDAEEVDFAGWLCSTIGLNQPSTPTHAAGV

SMILES	IC50 (HT) [µM]	inhibition [1] [%]	IC50 (K562) [µM]	IC50 (CX-1) [µM]	IC50 (SK-MEL-28) [µM]	IC50 (T47D) [µM]	Activity [2] [%]	IC50 (HCC1954) [µM]	IC50 (NCI-H82) [µM]	IC50 [3] [µM]	IC50 (Hs 294T) [µM]	IC50 (EVSA-T) [µM]	IC50 (U-937) [µM]	Activity [4] [%]	IC50 (OCI-AML-5) [µM]	IC50 (PC-3) [µM]	inhibition [5] [%]	Activity [6] [%]	IC50 (LXF-289 cell line) [µM]	Kd [12] [µM]	also measured
C/C=C/Cn1cc(-c2ccc(C(C)(C)O)cc2OC)c2cc[nH]c2c1=O	20	-2.5	20	20	20	20	15	20	20	20	20	20	20	11	20	20	1.5	-10	20	> 10	inhibition [7]: 1%; IC50 [8]: 20 µM; IC50 (Hs-578T): 20 µM; inhibition [9]: -0.5%; IC50 [10]: 20 µM; IC50 (NCI-H650): 20 µM; IC50 [11]: 8.14 µM; IC50 (NCI-H1437): 20 µM; IC50 (COLO 320DM): 20 µM
C/C=C/Cn1cc(-c2cc(OC)c(C(C)(C)O)cc2OC)c2cc(C)[nH]c2c1=O																				> 10	
C/C=C/Cn1cc(-c2ccc(C(=O)N3CCOCC3)cc2)c2cc[nH]c2c1=O	20	-3.9	20	20	20	20	15	20	20	20	20	20	20	4	20	20	-2.4	-7	20	3.8	inhibition [7]: 3%; IC50 [8]: 20 µM; IC50 (Hs-578T): 20 µM; inhibition [9]: -0.4%; IC50 [10]: 20 µM; IC50 (NCI-H650): 20 µM; IC50 [11]: 8.35 µM; IC50 (NCI-H1437): 20 µM; IC50 (COLO 320DM): 20 µM
C/C=C/Cn1cc(-c2cc(OC)c(C(=O)N3CCOCC3)cc2OC)c2cc(C)[nH]c2c1=O	2	-4.5	2	2	2	2	11	2	2	2	2	2	2	12	2	2	3	-8	2	3.6	inhibition [7]: 4%; IC50 [8]: 2 µM; IC50 (Hs-578T): 2 µM; inhibition [9]: 4.5%; IC50 [10]: 2 µM; IC50 (NCI-H650): 2 µM; IC50 [11]: 0.54 µM; IC50 (NCI-H1437): 2 µM; IC50 (COLO 320DM): 2 µM
